Source: patent US6579851B2, “Effects of glucagon-like peptide-1 (7-36) on antro-pyloro-duodenal motility” (Amylin Pharmaceuticals, Inc., priority 2000, dated 2003)
Where two headings read alike, the source gives them in different places.

Experiments:
pyloric motility = assay: Pyloric motility (IPPW, pyloric tone) and duodenal phase III by perfusion manometry; type: in vivo, human; settings: for Volunteers with duodenal phase III: within 10 min after GLP-1 infusion; for Pyloric Motility IPPW: actual values; for Pyloric tone: values over basal
Experimental: Inhibition of antro-duodenal activity is assessed directly by motility recordings using methods that are well known to the skilled artisan. Contractile events are analyzed with a computer and validated software (Katschinski et al., Gastroenterol. 103, 383-91 (1992)) and only peaks with amplitudes of at least 10 mmHg and a duration of at least 2 s are considered true contractions. Duodenal phase III is defined as the occurrence of regular contractions at a frequency of ≧10/min for at least 2 min in the duodenum propagated aborally.
As used herein, “inhibition” of antro-pyloro-duodenal motility is defined as a reduction in the motility index. Other methods for measuring motility can be used. One of skill in the art will appreciate that a significant inhibition, including total inhibition, of motility will be useful.
The present invention also relates to therapeutic methods associated with stimulating pyloric motility. Two parameters used to describe pyloric motility are: 1) Isolated pyloric pressure waves (IPPW), defined as contractions registered by the sleeve with or without simultaneous contractions in maximally one sleeve-side-hole in the absence of associated (±3 sec) waves of any amplitude in the adjacent antral and duodenal side-holes and 2) pyloric tone. Pyloric tone is measured by deducting the basal pressure recorded by the antral side hole at the proximal end of the sleeve, from the basal pressure recorded by the sleeve. Basal pressures is defined as the mean pressure after excluding contractions; it is obtained each minute and used to calculate mean pyloric tone.
(§1) All values were expressed as mean±SEM. […] Differences were considered significant at P<0.05.
(§2) All studies were performed after an overnight fast.
Perfusion manometry was recorded using a nine-lumen duodenal sleeve/side-hole catheter (Dentsleeve, South Australia, Australia). The manometric assembly incorporated a 4.5 cm long sleeve sensor, two antral side-holes (2 cm apart), and three duodenal side-holes (2 cm apart), beginning at the proximal and distal end of the sleeve, respectively. Two more side-holes were positioned across the sleeve spaced 1.5 cm apart. An additional lumen located 12 cm distal to the sleeve sensor was used for duodenal perfusion.
The correct position of the duodenal probe with the sleeve array straddling the pylorus was fluoroscopically checked before start of each experiment, and monitored throughout each study by measuring the transmucosal potential difference at the distal antral and the proximal duodenal port, as previously described (Schirra et al. J Clin Invest 97, 92-103 (1996)). A difference of at least −15 mV indicated correct transpyloric position of the tube.
The motility channels were perfused at a rate of 0.3 ml/min using a low-compliance pneumohydraulic pump (Arndorfer Medical Specialists, Greendale, Wis.). Pressures were measured by external transducers. Data were simultaneously recorded on the screen of a multichannel chart system (PC Polygraph, Synectics Medical, Stockholm, Sweden) and stored in the memory of a personal computer. Data were sampled and digitized at 8 Hz followed by digital smoothing by a factor of 2.

[1] = during the experiments of the application
Experimental: (§3) Eleven healthy male volunteers, 23 to 28 years old and within 10% of ideal body weight, participated in the studies. None of them were taking medication, or suffering from gastrointestinal symptoms or systemic disease.
(§4) All studies were performed after an overnight fast. Two experiments were performed, separated by at least 1 week on subjects lying in a semirecumbent position. An indwelling catheter was inserted into an antecubital vein for intravenous infusions. A second catheter was inserted into a dorsal vein of the contralateral hand in a retrograde fashion for sampling of arterialized blood (Schirra et al. Proc Assoc Am Physicians 109, 84-97 (1997)).
(§5) On the interdigestive study day, 0.154 M saline was continuously perfused into the region of the lower duodenal flexure at a rate of 2.5 ml/min. […] On the postprandial study day, the same intravenous infusions were administered with an intraduodenal lipid perfusion at 2.5 kcal/min (2.5 ml/min, Lipofundin MCT 10%, Braun Co., Melsungen, Germany). This lipid preparation consisted of 50% medium-chain triglycerides (MCT) and 50% long-chain triglycerides (LCT, soya bean oil).

[2] = Plasma insulin during intravenous GLP-1 infusion (immunoassay); type: in vivo, human
Experimental: as §1, §2
(§6) The plasma was stored at −20° C. until assayed.

[3] = for GLP-1 (plasma immunoreactivity, AUC over basal): 60 min period, mean ± SEM
Experimental: Plasma glucose concentrations were measured using a glucose analyzer by the glucose oxidase method (YSI 1500 G; Schlag, Bergisch-Gladbach, Germany), with a coefficient of variation of <2%. Plasma insulin was measured by the Abbott Imx Microparticle Enzyme Immunoassay, with an average intraassay coefficient of variation of 5%. Plasma immunoreactivities of C-peptide, glucagon, and pancreatic polypeptide (PP) were analyzed by commercially available radioimmunoassay kits (Biermann, Bad Nauheim, Germany and Euradiagnostica, The Netherlands [PP]). […] The detection limit of the assay was 0.25 pmol/l. […] Intra- and inter-assay coefficients of variation were 3.4 and 10.4%, respectively. All values were expressed as mean±SEM. Plasma and motility parameters were separately analyzed for each 60 min period. Pyloric tone was calculated as change from basal, the latter being determined as mean pyloric tone during the total basal period before starting the experiments. Differences of plasma hormones and glucose compared to the basal state were calculated as integrated values over basal (area under the response curve; AUC). Basal levels of plasma parameters were determined as the mean of the two basal values just before the start of each experiment. All samples were first tested for normality by the Kolmogoroff-Smirnoff test. Differences between experimental sets for each parameter were analysed by two-way repeated measures analysis of variance employing intravenous infusion and duodenal perfusion as factors. When this analysis indicated differences, a Student-Newman-Keuls multicomparison test was performed. Differences were considered significant at P<0.05.
as §3, §4, §5
Throughout the experiment, blood samples were taken immediately before the start of intravenous infusion, as well as in 10-min intervals thereafter. Blood was collected in ice-chilled EDTA tubes containing 1000 aprotinin (kallikrein inhibitory units/ml blood) and was centrifuged immediately. The plasma was stored at −20° C. until assayed.

[4] = Plasma glucose during intravenous GLP-1 infusion (glucose oxidase method); type: in vivo, human; settings: for Nadir of plasma glucose: at 20 min
Experimental: as §1, §2, §6

[5] = intraduodenal lipid, high dose 1.2 pmol·kg−1·min−1 iv.
[6] = intraduodenal lipid, low dose 0.4 pmol·kg−1·min−1 iv.
[7] = intraduodenal saline, high dose 1.2 pmol·kg−1·min−1 iv.
[8] = intraduodenal saline, low dose 0.4 pmol·kg−1·min−1 iv.
[9] = low dose GLP-1, interdigestive state

In the case of CC[C@H](C)[C@H](NC(=O)[C@H](Cc1ccccc1)NC(=O)[C@H](CCC(=O)O)NC(=O)[C@H](CCCCN)NC(=O)[C@H](C)NC(=O)[C@H](C)NC(=O)[C@H](CCC(N)=O)NC(=O)CNC(=O)[C@H](CCC(=O)O)NC(=O)[C@H](CC(C)C)NC(=O)[C@H](Cc1ccc(O)cc1)NC(=O)[C@H](CO)NC(=O)[C@H](CO)NC(=O)[C@@H](NC(=O)[C@H](CC(=O)O)NC(=O)[C@H](CO)NC(=O)[C@@H](NC(=O)[C@H](Cc1ccccc1)NC(=O)[C@@H](NC(=O)CNC(=O)[C@H](CCC(=O)O)NC(=O)[C@H](C)NC(=O)[C@@H](N)Cc1c[nH]cn1)[C@@H](C)O)[C@@H](C)O)C(C)C)C(=O)N[C@@H](C)C(=O)N[C@@H](Cc1c[nH]c2ccccc12)C(=O)N[C@@H](CC(C)C)C(=O)N[C@H](C(=O)N[C@@H](CCCCN)C(=O)NCC(=O)N[C@@H](CCCNC(=N)N)C(N)=O)C(C)C [GLP-1, glucagon-like peptide-1(7-36)amide], the “Subjects with duodenal phases III” value (pyloric motility; GLP-1 infusion in conjunction with lipid perfusion) is reported as “two out of 11”, the “Volunteers with duodenal phase III” value (pyloric motility; high dose GLP-1, interdigestive state) is reported as “five” and the “Pyloric Motility IPPW” value (pyloric motility; [5]) is reported as 15.5 ± 2.1 number/10 min. For the same compound, the Pyloric tone (pyloric motility; [5]) was 8.6 ± 1.0 mmHg, the “Pyloric Motility IPPW” value (pyloric motility; [6]) was 15.7 ± 2.5 number/10 min and the Pyloric tone (pyloric motility; [6]) was 7.4 ± 1.0 mmHg. For the same compound, the “Pyloric Motility IPPW” value (pyloric motility; [7]) was 8.6 ± 1.3 number/10 min, the Pyloric tone (pyloric motility; [7]) was 7.3 ± 1.5 mmHg and the “Pyloric Motility IPPW” value (pyloric motility; [8]) was 10.1 ± 1.9 number/10 min. The Pyloric tone (pyloric motility; [8]) was 5.3 ± 0.9 mmHg, the “Time until increase of pyloric tone was fully established” value (pyloric motility; [9]) was ≤ 20 min and the “Time until increase of pyloric tone was significant” value (pyloric motility; [9]) was ≤ 10 min. For the same compound, the “Volunteers with duodenal phase III” value (pyloric motility; [9]) was “seven out of 11”, the “Hypoglycemia and other side effects” value [1] was “did not cause hypoglycemia” and the “Insulin (AUC over basal)” value [2, 5] was 31.4 ± 8.4∥ mU/l · 60 min. For the same compound, the “Insulin (AUC over basal)” value [2, 6] was 24.7 ± 4.8∥ mU/l · 60 min, the “Insulin (AUC over basal)” value [2, 7] was 11.9 ± 5.1 mU/l · 60 min and the “Insulin (AUC over basal)” value [2, 8] was 11.3 ± 2.4 mU/l · 60 min. The “GLP-1 (plasma immunoreactivity, AUC over basal)” value ([3]; intraduodenal lipid 2.5 kcal/min, GLP-1 iv. high dose 1.2 pmol·kg−1·min−1) was 75.2 ± 3.9*‡∥ pmol/l · 60 min, the “GLP-1 (plasma immunoreactivity, AUC over basal)” value ([3]; intraduodenal lipid 2.5 kcal/min, GLP-1 iv. low dose 0.4 pmol·kg−1·min−1) was 33.8 ± 2.9*∥ pmol/l · 60 min and the “GLP-1 (plasma immunoreactivity, AUC over basal)” value ([3]; intraduodenal saline, GLP-1 iv. high dose 1.2 pmol·kg−1·min−1) was 67.4 ± 4.0 pmol/l · 60 min. For the same compound, the “GLP-1 (plasma immunoreactivity, AUC over basal)” value ([3]; intraduodenal saline, GLP-1 iv. low dose 0.4 pmol·kg−1·min−1) was 25.2 ± 2.6 pmol/l · 60 min, the “Time to constant plasma levels after start of infusion” value ([3]; iv. infusion, duodenal saline and lipid) was ≤ 20 min and the “Nadir of plasma glucose” value ([4]; high dose GLP-1) was 3.64 ± 0.14 mmol/L. The “Plasma glucose (AUC over basal)” value [4, 5] was −4.5 ± 0.7*∥ mmol/l · 60 min, the “Plasma glucose (AUC over basal)” value [4, 6] was −4.7 ± 0.5*∥ mmol/l · 60 min and the “Plasma glucose (AUC over basal)” value [4, 7] was −2.5 ± 0.4 mmol/l · 60 min. The “Plasma glucose (AUC over basal)” value [4, 8] was −2.3 ± 0.3 mmol/l · 60 min and the “Nadir of plasma glucose” value ([4]; low dose GLP-1) was 3.58 ± 0.12 mmol/L.
